Experimental data as given in publication PMC10035389, “Safety, Tolerability, and Pharmacokinetics of TAK-931, a Cell Division Cycle 7 Inhibitor, in Patients with Advanced Solid Tumors: A Phase I First-in-Human Study” (Cancer Research Communications, 2022).

Tested on: patients with advanced solid tumors
Assay: Safety and tolerability (adverse events, NCI CTCAE v4.03), phase I dose-escalation study
Assay type: in vivo, human
Excerpt: This was a phase I, open-label, dose-escalation study of single-agent TAK-931. Dose escalation of TAK-931 was cohort based with an adaptive design using Bayesian logistic regression modeling (BLRM) with pharmacokinetic guidance. BLRM also guided MTD estimation from the second dose. Patients were enrolled in one of four dosing schedules (A, B, D, or E; Supplementary Fig. S1) to receive TAK-931. Two additional schedules were planned (C and F) but no patients were enrolled. Schedule A included an initial accelerated escalation phase. TAK-931 was administered once daily for 14 days in 21-day cycles starting at 30 mg, which doubled until a cycle 1 dose-limiting toxicity (DLT) was observed, when 2 patients experienced grade ≥2 treatment-related toxicity, or when maximum geometric mean plasma concentration (Cmax) for the cohort reached or exceeded 800 ng/mL [threshold for off-target adverse effects (hypotension) in animal toxicology studies]; then dose escalation transitioned to modified Fibonacci escalation steps. In schedule B (based on experience with schedule A), patients received TAK-931 once daily or twice daily for 7 days on, 7 days off in a 28-day cycle starting at 60 mg. In schedule D, patients received TAK-931 once daily starting at 20 mg in 21-day cycles; BLRM was not applied but further adjustments were dependent on observed safety, pharmacokinetics, and pharmacodynamics. In schedule E, patients received TAK-931 once daily for 2 days on, 5 days off starting at 100 mg in 21-day cycles. A safety expansion was permitted once MTD had been determined. Prophylactic growth factors were permitted in all schedules to manage severe and/or febrile neutropenia. TAK-931 treatment continued until unacceptable toxicity, disease progression, or patient withdrawal.
DLTs included: cycle 1 grade ≥3 hematologic and non-hematologic events or grade 2 non-hematologic events considered by the investigator to be TAK-931-related, grade 2 ejection fraction decrease, >2 weeks delay in initiating cycle 2 (1 week for schedules D and E), and >50% TAK-931 dose reduction in cycle 1 due to treatment-related adverse events (AEs; see Supplementary Materials and Methods for full DLT criteria). Toxicity was evaluated by NCI Common Terminology Criteria for Adverse Events (version 4.03). Tumor response was measured using the RECIST (version 1.1) ([16]). Serial blood samples for pharmacokinetic analysis were collected during cycle 1 on days 1 and 7 (schedule B), 1 and 8 (schedules A and D), or 1 and 9 (schedule E). Pharmacokinetic parameters were estimated from concentration–time profiles using noncompartmental methods with WinNonlin® Phoenix™ version 8.1 (Certara, Princeton, NJ). pMCM2 was detected semiquantitatively by IHC of histologic sections of formalin-fixed, paraffin-embedded skin and tumor biopsies using anti-pMCM2 (3378-1, Epitomics Inc.; ref. [15]). Quantitative image analysis determined pMCM2 levels as “histologic score nuclei (H-score).” Skin punch biopsies (2–4 mm) were obtained during screening or predose on cycle 1, day 1 and for patients in schedules A, B, and D, postdose on any drug dosing day after 3 consecutive dosing days in cycle 1. A postdose skin biopsy was obtained on day 9 in schedule E. Fresh tumor biopsy pairs were collected predose and postdose on any dosing day after the completion of 3 consecutive dosing days in cycle 1 from patients who received doses considered to have biological effect.
The safety population included patients who received ≥1 dose of TAK-931. The pharmacodynamic-evaluable population comprised patients from the safety population with a baseline and ≥1 additional postbaseline biopsy sample that was suitable for pMCM2 analysis. The pharmacokinetic-evaluable population included patients with sufficient dosing and TAK-931 concentration–time data to estimate pharmacokinetic parameters. […]

[1] = Schedule D (continuous once daily) n = 18
[2] = Schedule E (2 days on, 5 days off) n = 13
[3] = all schedules, N = 80, all grade 1/2

## Cc1[nH]ncc1-c1cc2nc([C@@H]3CC4CCN3CC4)[nH]c(=O)c2s1 [TAK-931, simurosertib]
[1]
  Rash popular, AE any grade: 2 (11) n (%)
  Stomatitis, AE any grade: 0 (0) n (%)
  Thrombocytopenia, AE any grade: 0 (0) n (%)
  Tumor pain, AE any grade: 1 (6) n (%)
  Vomiting, AE any grade: 2 (11) n (%)
  White blood cell count decreased, AE any grade: 7 (39) n (%)
  White blood cell count decreased, grade ≥3 AE: 2 (11) n %
[2]
  Abdominal pain, AE any grade: 0 (0) n (%)
  Alopecia, AE any grade: 4 (31) n (%)
  Anemia, AE any grade: 6 (46) n (%)
  Anemia, grade ≥3 AE: 5 (38) n %
  Arthralgia, AE any grade: 1 (8) n (%)
  Blood creatinine increased, AE any grade: 0 (0) n (%)
  Constipation, AE any grade: 1 (8) n (%)
  Cough, AE any grade: 0 (0) n (%)
  Decreased appetite, AE any grade: 5 (38) n (%)
  Decreased appetite, grade ≥3 AE: 0 (0) n %
  Diarrhea, AE any grade: 3 (23) n (%)
  Dry skin, AE any grade: 3 (23) n (%)
  Edema peripheral, AE any grade: 3 (23) n (%)
  Electrocardiogram QT prolonged, AE any grade: 1 (8) n (%)
  Fall, AE any grade: 2 (15) n (%)
  Fatigue, AE any grade: 2 (15) n (%)
  Febrile neutropenia, AE any grade: 1 (8) n (%)
  Febrile neutropenia, grade ≥3 AE: 1 (8) n %
  Gamma-glutamyltransferase increased, AE any grade: 2 (15) n (%)
  Gamma-glutamyltransferase increased, grade ≥3 AE: 0 (0) n %
  Hypoalbuminemia, AE any grade: 0 (0) n (%)
  Hypoalbuminemia, grade ≥3 AE: 0 (0) n %
  Hypophosphatemia, grade ≥3 AE: 0 (0) n %
  Hypotension, AE any grade: 5 (38) n (%)
  Leukopenia, AE any grade: 1 (8) n (%)
  Leukopenia, grade ≥3 AE: 0 (0) n %
  Lymphocyte count decreased, AE any grade: 1 (8) n (%)
  Lymphocyte count decreased, grade ≥3 AE: 1 (8) n %
  Lymphopenia, AE any grade: 0 (0) n (%)
  Malaise, AE any grade: 2 (15) n (%)
  Nasopharyngitis, AE any grade: 0 (0) n (%)
  Nausea, AE any grade: 7 (54) n (%)
  Neutropenia, AE any grade: 8 (62) n (%)
  Neutropenia, grade ≥3 AE: 8 (62) n %
  Orthostatic hypotension, AE any grade: 3 (23) n (%)
  Platelet count decreased, AE any grade: 1 (8) n (%)
  Pruritus, AE any grade: 0 (0) n (%)
  Pyrexia, AE any grade: 2 (15) n (%)
  Rash popular, AE any grade: 0 (0) n (%)
  Stomatitis, AE any grade: 1 (8) n (%)
  Thrombocytopenia, AE any grade: 0 (0) n (%)
  Tumor pain, AE any grade: 3 (23) n (%)
  Vomiting, AE any grade: 7 (54) n (%)
  White blood cell count decreased, AE any grade: 7 (54) n (%)
  White blood cell count decreased, grade ≥3 AE: 4 (31) n %
Total, all schedules N = 80
  Abdominal pain, AE any grade: 5 (6) n (%)
  Alopecia, AE any grade: 26 (33) n (%)
  Anemia, AE any grade: 19 (24) n (%)
  Anemia, grade ≥3 AE: 10 (13) n %
  Arthralgia, AE any grade: 6 (8) n (%)
  Blood creatinine increased, AE any grade: 7 (9) n (%)
  Constipation, AE any grade: 10 (13) n (%)
  Cough, AE any grade: 3 (4) n (%)
  Decreased appetite, AE any grade: 23 (29) n (%)
  Decreased appetite, grade ≥3 AE: 3 (4) n %
  Diarrhea, AE any grade: 15 (19) n (%)
  Dry skin, AE any grade: 6 (8) n (%)
  Edema peripheral, AE any grade: 10 (13) n (%)
  Electrocardiogram QT prolonged, AE any grade: 4 (5) n (%)
  Fall, AE any grade: 4 (5) n (%)
  Fatigue, AE any grade: 12 (15) n (%)
  Febrile neutropenia, AE any grade: 5 (6) n (%)
  Febrile neutropenia, grade ≥3 AE: 5 (6) n %
  Gamma-glutamyltransferase increased, AE any grade: 5 (6) n (%)
  Gamma-glutamyltransferase increased, grade ≥3 AE: 2 (3) n %
  Hypoalbuminemia, AE any grade: 6 (8) n (%)
  Hypoalbuminemia, grade ≥3 AE: 2 (3) n %
  Hypophosphatemia, grade ≥3 AE: 2 (3) n %
  Hypotension, AE any grade: 11 (14) n (%)
  Leukopenia, AE any grade: 19 (24) n (%)
  Leukopenia, grade ≥3 AE: 11 (14) n %
  Lymphocyte count decreased, AE any grade: 4 (5) n (%)
  Lymphocyte count decreased, grade ≥3 AE: 2 (3) n %
  Lymphopenia, AE any grade: 5 (6) n (%)
  Malaise, AE any grade: 11 (14) n (%)
  Nasopharyngitis, AE any grade: 6 (8) n (%)
  Nausea, AE any grade: 48 (60) n (%)
  Neutropenia, AE any grade: 45 (56) n (%)
  Neutropenia, grade ≥3 AE: 37 (46) n %
  Orthostatic hypotension, AE any grade: 4 (5) n (%)
  Platelet count decreased, AE any grade: 6 (8) n (%)
  Pruritus, AE any grade: 4 (5) n (%)
  Pyrexia, AE any grade: 10 (13) n (%)
  Rash popular, AE any grade: 5 (6) n (%)
  Stomatitis, AE any grade: 7 (9) n (%)
  Thrombocytopenia, AE any grade: 5 (6) n (%)
  Tumor pain, AE any grade: 8 (10) n (%)
  Vomiting, AE any grade: 29 (36) n (%)
  White blood cell count decreased, AE any grade: 27 (34) n (%)
  White blood cell count decreased, grade ≥3 AE: 12 (15) n %
All schedules
  Decrease in CLr (renal effects monitoring): no clinically relevant decrease
  Severity of cardiovascular events: grade 1/2
All schedules, N = 80
  Alopecia, AE: 33%
  Anemia, AE: 24%
  Anemia, grade ≥3 AE: 13%
  Decreased appetite, AE: 29%
  Febrile neutropenia, grade ≥3 AE: 6%
  Leukopenia, AE: 24%
  Leukopenia, grade ≥3 AE: 14%
  Nausea, AE: 60%
  Neutropenia, AE: 56%
  Neutropenia, grade ≥3 AE: 46%
  Patients who discontinued treatment (AEs): 4 patients
  Patients with AEs resulting in dose delays: 40%
  Patients with AEs resulting in dose holds: 45%
  Patients with AEs resulting in dose reductions: 31%
  Vomiting, AE: 36%
  White blood cell count decreased, AE: 34%
  White blood cell count decreased, grade ≥3 AE: 15%
All schedules, N = 80, 50 patients
  Patients reporting grade ≥3 AEs: 63%
All schedules, N = 80, 79 patients
  Patients experiencing AEs: 99%
All schedules, N = 80, Forty-nine patients
  Patients with AEs resulting in TAK-931 dose modification: 61%
All schedules, N = 80, Four patients
  Patients who discontinued treatment (AEs): 5%
All schedules, N = 80, Twenty-three patients
  Patients with ≥1 serious AE: 29%
[3]
  Electrocardiogram QT prolonged, cardiovascular event: 5%
  Hypotension, cardiovascular event: 14%
  Orthostatic hypotension, cardiovascular event: 5%
All schedules, N = 80, n = 3
  Decreased appetite, serious AE: 4%
  Malignant ascites, serious AE: 4%
All schedules, N = 80, n = 4
  Febrile neutropenia, serious AE: 5%
All schedules, Two patients, due to disease progression, neither related to TAK-931
  Patients who died during the study: 3%
